Earlier results as cited in article PMC4912218, “Targeted metabolomics of Gammarus pulex following controlled exposures to selected pharmaceuticals in water” (The Science of the Total Environment, 2016).

System: Thamnocephalus platyurus
Conditions: ref Kim et al., 2009; cited from earlier work

## Oc1cc(Cl)ccc1Oc1ccc(Cl)cc1Cl [Triclosan]
  24 h- LC50 T. platyurus: 0.47 µg/mL
